The values below come from ChEMBL document CHEMBL1208715, “Cyclic amide bioisosterism: strategic application to the design and synthesis of HCV NS5B polymerase inhibitors” (Bioorg Med Chem Lett, 2010).

pEC50, pIC50, pKd: −log10 of the molar value.

Series [1] is described as follows: Inhibition of HCV GT1b NS5B polymerase. Also on record: species or system Hepacivirus hominis.
The nature of series [2]: Cytotoxicity against human HuH7 cells by WST-1 assay. It is filed as cell-based, Huh-7. Background: Tetrazolium dyes change colour on reduction, which living cells bring about.
The target of series [3] is RNA-directed RNA polymerase (Hepacivirus hominis, UniProt O39930, M414T). Kind of series: Inhibition of HCV NS5B polymerase M414T mutant.
Sequence of RNA-directed RNA polymerase (Hepacivirus hominis, UniProt O39930, M414T) (O39930 entry or part of it M414T): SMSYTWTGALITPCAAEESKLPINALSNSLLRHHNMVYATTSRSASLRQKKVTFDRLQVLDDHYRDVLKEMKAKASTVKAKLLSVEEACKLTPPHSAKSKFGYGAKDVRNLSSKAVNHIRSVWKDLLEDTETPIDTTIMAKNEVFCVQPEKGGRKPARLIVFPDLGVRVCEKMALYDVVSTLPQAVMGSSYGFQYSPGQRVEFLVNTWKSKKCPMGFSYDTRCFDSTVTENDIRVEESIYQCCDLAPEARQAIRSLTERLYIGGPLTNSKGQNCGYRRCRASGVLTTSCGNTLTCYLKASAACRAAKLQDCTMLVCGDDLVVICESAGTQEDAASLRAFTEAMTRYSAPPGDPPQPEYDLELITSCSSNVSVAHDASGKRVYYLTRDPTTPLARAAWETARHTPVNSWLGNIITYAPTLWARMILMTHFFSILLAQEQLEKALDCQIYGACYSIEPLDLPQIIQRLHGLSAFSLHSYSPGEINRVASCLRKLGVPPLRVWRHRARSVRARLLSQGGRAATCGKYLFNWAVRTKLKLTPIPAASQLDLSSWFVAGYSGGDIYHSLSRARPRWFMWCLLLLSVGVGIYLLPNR
A further series deals with Hepatitis C virus. Kind of series: Antiviral activity against […] Con1 GT1b infected in HuH7 cells by replicon assay. Conditions: Huh-7. Type of series: functional, Hepacivirus hominis. On the technique in general: Replicon systems follow genome replication, usually without infectious particles.
The target of series [4] is RNA-directed RNA polymerase (Hepacivirus hominis, UniProt O39930, L419M). Put plainly: Inhibition of HCV NS5B polymerase L419M mutant.
Sequence of RNA-directed RNA polymerase (Hepacivirus hominis, UniProt O39930, L419M) (O39930 entry or part of it L419M): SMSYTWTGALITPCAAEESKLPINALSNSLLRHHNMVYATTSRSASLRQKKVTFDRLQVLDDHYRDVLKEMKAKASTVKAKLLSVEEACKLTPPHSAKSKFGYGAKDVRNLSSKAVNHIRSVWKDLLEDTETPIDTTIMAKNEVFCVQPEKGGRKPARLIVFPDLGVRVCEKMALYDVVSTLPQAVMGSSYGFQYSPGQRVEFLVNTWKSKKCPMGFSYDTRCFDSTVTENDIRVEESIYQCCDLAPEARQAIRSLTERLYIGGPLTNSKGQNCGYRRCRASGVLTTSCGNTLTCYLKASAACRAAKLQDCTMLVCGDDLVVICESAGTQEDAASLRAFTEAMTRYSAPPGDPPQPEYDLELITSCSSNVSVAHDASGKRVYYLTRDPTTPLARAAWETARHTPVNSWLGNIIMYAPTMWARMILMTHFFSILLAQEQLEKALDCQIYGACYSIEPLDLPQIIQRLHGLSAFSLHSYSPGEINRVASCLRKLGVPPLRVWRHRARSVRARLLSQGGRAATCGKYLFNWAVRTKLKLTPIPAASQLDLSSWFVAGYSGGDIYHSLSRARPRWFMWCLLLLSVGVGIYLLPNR
Series [5] is described as follows: Inhibition of wild type HCV GT1b NS5B polymerase. Also on record: species or system Hepacivirus hominis.

One may read the pIC50 as the IC50 on a negative log10 scale, so that one unit is a factor of ten. Lower therefore signals a large IC50. For `O=C(O)c1sc(-c2ccccc2)cc1-c1cc(=O)[nH]nc1-c1ccccc1`, the pIC50 in series [1] is 4.04. On the same count and under the same terms, the same measure for `O=C(O)c1sc(-c2ccccc2)cc1-c1conc1-c1ccc(F)cc1`: 5.24; for `O=C(O)c1sc(-c2ccccc2)cc1-c1conc1-c1ccccc1`: 4.54.

The compound `CC1CCC(=Cc2ncccc2-c2cc(-c3ccccc3)sc2C(=O)O)CC1` (stereo unspecified) had a pIC50 in series [1] of 6.77. Compared with the last compound, the pIC50 is 2.23 log units higher. In turn, `Cc1ccc(-c2cc(=O)[nH]n2-c2cc(-c3ccccc3)sc2C(=O)O)cc1` gave a negative logarithm of the IC50 (pIC50) in series [1] of 6.21.

Consider `O=C(O)c1sc(-c2ccccc2)cc1-c1cnnn1C1CCCCC1`, for which the pIC50 in series [1] is 6.47. The same measure, in the same setting: with `O=C(O)c1sc(-c2ccccc2)cc1-c1conc1-c1ccc(Cl)cc1` the figure was 5.59; with `O=C(O)c1sc(-c2ccccc2)cc1-c1conc1C1CCCCC1`, 7.13. Same read-out and setting: with `C[C@H]1CC[C@H](c2ncccc2-c2cc(-c3ccccc3)sc2C(=O)O)CC1` the figure was 7.66; with `C[C@H]1CC[C@H](c2nocc2-c2cc(-c3ccccc3)sc2C(=O)O)CC1`, 6.96. The term CC50 denotes the concentration giving 50% cytotoxicity. What is called pKd is the negative decadic logarithm of the Kd, by convention in mol/L. Read a low pKd as a high Kd. One may read the pEC50 as the EC50 on a negative log10 scale, so that one unit is a factor of ten. Low readings indicate a large EC50, high ones a small EC50. Turning to `C[C@H]1CC[C@H](n2nncc2-c2cc(-c3ccccc3)sc2C(=O)O)CC1`, the CC50 in series [2] is above 50000 nM. Also, the negative-log IC50 (pIC50) in series [1] is 7.00. Further, the pKd in series [3] was 6.22; in series [4], 5.35; in series [5], 6.07. The negative-log EC50 (pEC50) in the series on Hepatitis C virus is 4.82. For `C[C@H]1CC[C@H](c2cc(-c3cc(-c4ccccc4)sc3C(=O)O)on2)CC1`, the pIC50 in series [1] is 4.49.

Consider `CCCCOc1ccccc1-c1cc(-c2ccccc2)sc1C(=O)O`, for which the pIC50 in series [1] was 4.80.

With `C[C@H]1CC[C@H](c2ccccc2-c2cc(-c3ccccc3)sc2C(=O)O)CC1`, in series [2], the half-maximal cytotoxic concentration (CC50) stood at 20000 nM. The pIC50 in series [1] was 7.38. This compound gave a pEC50 in the series with Hepatitis C virus of 4.92. With `Cc1ccc(-c2nocc2-c2cc(-c3ccccc3)sc2C(=O)O)cc1`, in series [1], the negative-log IC50 (pIC50) was 5.60.

Turning to `CC(C)N(c1cc(-c2ccccc2)sc1C(=O)O)C(=O)[C@H]1CC[C@H](C)CC1`, the midpoint of cytotoxicity in series [2], the CC50, lay at 48000 nM. The compound also had a pIC50 in series [1] of 7.55. Besides, the pKd in series [3] is 7.48; in series [4], 6.37; in series [5], 7.39. Also, in the series with Hepatitis C virus, the pEC50 was 6.64.

`O=C(O)c1sc(-c2ccccc2)cc1-c1cnnn1-c1ccccc1` gave a pIC50 in series [1] of 4.77. For `Cc1ccc(-c2cc(=O)[nH]nc2-c2cc(-c3ccccc3)sc2C(=O)O)cc1`, the negative logarithm of the IC50 (pIC50) in series [1] is 5.48. In series [2], `Cc1ccc(-n2nncc2-c2cc(-c3ccccc3)sc2C(=O)O)cc1` came in with a CC50 above 30000 nM. The same compound had a pIC50 in series [1] of 6.96. Besides, the negative logarithm of the Kd (pKd) in series [3] was 5.40; in series [4], 4.64; in series [5], 5.36. Besides, the negative logarithm of the EC50 (pEC50) with Hepatitis C virus was below 4.52.
